The values that follow come from ChEMBL document CHEMBL1134254, “Syntheses of certain 3-aryl-2-propenoates and evaluation of their cytotoxicity” (Bioorg Med Chem Lett, 2001).

In assay [1] the test system is B16. The assay is described as follows: Inhibitory concentration against B16 murine melanoma cell line. Particulars: Mus musculus.
For assay [2], the system named is A-431. The assay is described as follows: cells. Particulars: Homo sapiens.
Description: Inhibitory concentration required against A 431 human epidermoid carcinoma cell line
The subject of assay [3] is HCT-116. The assay can be described thus: cells. Particulars: Homo sapiens.
Description: Inhibitory concentration against HCT 116 human colon cancer cell line
The test system of assay [4] is ACHN. The assay is described as follows: Inhibitory concentration required against ACHN renal cancer cell line. Particulars: Homo sapiens.
Assay [5] concerns DLD-1. The assay is described as follows: Inhibitory concentration required against DLD-1 colon cancer cell line. Particulars: Homo sapiens.
Assay [6] deals with HCT-15. The assay is described as follows: Inhibitory concentration required against HCT 15 colon cancer cell line. Particulars: Homo sapiens.
The subject of assay [7] is HT-29. The assay is described as follows: Inhibitory concentration required against HT 29 colon cancer cell line. Particulars: Homo sapiens.
Assay [8] has as its system HCC 2998. The assay can be described thus: Inhibitory concentration required against HCC2998 colon cancer cell line. Particulars: Homo sapiens.
Assay [9] has as its system MCF7. The assay is described as follows: Inhibitory concentration required against MCF-7 breast cancer cell line. It is filed as functional, cell-based. Particulars: Homo sapiens.
Assay [10] relates to NCI-H23. The assay is described as follows: Inhibitory concentration required against NCI-H23 lung cancer cell line. Particulars: Homo sapiens.
Assay [11] deals with PC-3. The assay can be described thus: Inhibitory concentration required against PC-3 prostate cancer cell line. Particulars: Homo sapiens.
Assay [12] deals with SNB-19. The assay is described as follows: Inhibitory concentration required against SNB19 CNS cancer cell line. Particulars: Homo sapiens. It counts as functional, cell-based.
For assay [13], the system named is SW-620. The assay can be described thus: Inhibitory concentration required against SW620 colon cancer cell line. Particulars: Homo sapiens.
Assay [14] deals with UACC-62. The assay can be described thus: Inhibitory concentration required against UACC62 melanoma cell line. Particulars: Homo sapiens.
Assay [15] relates to LOX IMVI. The assay is described as follows: Inhibitory concentration required against LOX-IMVI melanoma cell line. Particulars: Homo sapiens.
The subject of assay [16] is A549. The assay can be described thus: cells. Particulars: Homo sapiens.
Description: Inhibitory concentration required against A 549 lung cancer cell line
The test system of assay [17] is MDA-MB-231. The assay can be described thus: cells. Particulars: Homo sapiens.
Description: Inhibitory concentration required against MDA-MB-231 breast cancer cell line
In assay [18] the test system is COLO 205. The assay is described as follows: cells. Particulars: Homo sapiens.
Description: Inhibitory concentration required against COLO 205 colon cancer cell line

Values after ≈ are worked out from the molar mass of the structure shown.

Turning to `O=C(/C=C/c1ccc(O)c(O)c1)Nc1ccccc1`, the results for the IC50 in [1], in [2] and in [3] were 4.23 µg/mL (≈ 16.6 µM), 5 µg/mL (≈ 19.6 µM) and 4.26 µg/mL (≈ 16.7 µM), respectively.

Turning to `COC(=O)/C=C/c1ccc2c(c1)OCO2`, the IC50 in assay [1], in assay [2] and in assay [3] was greater than 30 µg/mL throughout.

As for `COC(=O)CCc1cc(O)ccc1O`, the 50% inhibitory concentration (IC50) amounted to 4.43 µg/mL (≈ 22.6 µM) in assay [1], 5 µg/mL (≈ 25.5 µM) in assay [2] and 4.59 µg/mL (≈ 23.4 µM) in assay [3].

As for `COC(=O)/C=C/c1ccc(OC)c(O)c1`, the IC50 was 25.9 µg/mL (≈ 124 µM) in assay [1], greater than 30 µg/mL in assay [2] and 27.5 µg/mL (≈ 132 µM) in [3].

As for `CCOC(=O)/C=C/c1cc(OC)c2c(c1OC)C(=O)c1ccccc1C2=O`, the concentration for half-maximal inhibition (IC50) in [1], in [2] and in [3] was greater than 30 µg/mL each time.

For the compound `COC(=O)/C=C/c1cc(O)c2c(c1O)C(=O)c1ccccc1C2=O`, the IC50 in [4] came to 0.42 µg/mL (≈ 1.3 µM); in assay [1], 0.18 µg/mL (≈ 0.555 µM); in assay [5], 0.89 µg/mL (≈ 2.74 µM); in [6] it was 0.66 µg/mL (≈ 2.04 µM); in [7] it was 0.55 µg/mL (≈ 1.7 µM); in [8], 0.95 µg/mL (≈ 2.93 µM). For the same compound, the half-inhibitory concentration (IC50) in assay [9] is 0.46 µg/mL (≈ 1.42 µM); in assay [10], 0.39 µg/mL (≈ 1.2 µM); in [11] it was 2.72 µg/mL (≈ 8.39 µM); in [12], 0.69 µg/mL (≈ 2.13 µM); in assay [13], 0.45 µg/mL (≈ 1.39 µM); in assay [14], 0.11 µg/mL (≈ 0.339 µM). The half-inhibitory concentration (IC50) in assay [15] was 0.09 µg/mL (≈ 0.278 µM); in assay [16], 1.13 µg/mL (≈ 3.48 µM); in assay [2] it was 0.87 µg/mL (≈ 2.68 µM); in [3], 0.65 µg/mL (≈ 2 µM); in assay [17] it was 0.74 µg/mL (≈ 2.28 µM); in [18], 0.73 µg/mL (≈ 2.25 µM).

`COC(=O)/C=C/c1ccc(OC)c(OC)c1`: the IC50 in assay [1], in [2] and in assay [3] was greater than 30 µg/mL throughout.

Consider `CCOC(=O)/C=C/c1ccc(O)c(O)c1` [ETHYL CAFFEATE], for which the concentration for half-maximal inhibition (IC50) in assay [1] came to 1.75 µg/mL (≈ 8.4 µM); in [2] it was 1.81 µg/mL (≈ 8.69 µM); in [3] it was 1.99 µg/mL (≈ 9.56 µM).

As for `COC(=O)/C=C/c1ccc(O)c(O)c1` [METHYLCAFFEATE], the IC50 in assay [1] amounted to 2.96 µg/mL (≈ 15.2 µM); in [2], 1.79 µg/mL (≈ 9.22 µM); in assay [3] it was 3.01 µg/mL (≈ 15.5 µM).

On to `O=C1c2ccccc2C(=O)c2c(O)ccc(O)c21` [QUINIZARIN], for which the IC50 in assay [1], in [2] and in assay [3] was greater than 30 µg/mL in each case.

Turning to `O=C/C=C/c1ccc(O)c(O)c1` [CAFFEOYL ALDEHYDE], the IC50 in [1], in [2] and in assay [3] was greater than 30 µg/mL throughout.

For `COC(=O)/C=C\c1cc(O)ccc1O`, the half-maximal inhibitory concentration (IC50) in assay [1] was 30.1 µg/mL (≈ 155 µM); in assay [2] it was greater than 30 µg/mL; in assay [3] it was greater than 30 µg/mL.

Take `CCCOC(=O)/C=C/c1ccc(O)c(O)c1`: the concentration for half-maximal inhibition (IC50) in [1] was 2.46 µg/mL (≈ 11.1 µM); in assay [2], 1.89 µg/mL (≈ 8.5 µM); in assay [3] it was 2.12 µg/mL (≈ 9.54 µM).

Consider `COC(=O)/C=C/c1cc(OC)ccc1OC`, for which the half-inhibitory concentration (IC50) in [1], in [2] and in assay [3] was greater than 30 µg/mL each time.

Take `COC(=O)/C=C/c1cc(O)ccc1O`: the half-maximal inhibitory concentration (IC50) in assay [4] was found to be 0.73 µg/mL (≈ 3.76 µM); in [1], 0.12 µg/mL (≈ 0.618 µM); in [5] it was 0.68 µg/mL (≈ 3.5 µM); in assay [6], 0.27 µg/mL (≈ 1.39 µM); in [7] it was 1.1 µg/mL (≈ 5.66 µM); in assay [8] it was 5.22 µg/mL (≈ 26.9 µM). In addition, the half-maximal inhibitory concentration (IC50) in assay [9] was found to be 0.37 µg/mL (≈ 1.91 µM); in assay [10], 0.93 µg/mL (≈ 4.79 µM); in assay [11], 0.42 µg/mL (≈ 2.16 µM); in assay [12], 2.59 µg/mL (≈ 13.3 µM); in assay [13], 0.39 µg/mL (≈ 2.01 µM); in [14], 0.56 µg/mL (≈ 2.88 µM). For the same compound, the IC50 in assay [15] was 0.28 µg/mL (≈ 1.44 µM); in assay [16], 7.81 µg/mL (≈ 40.2 µM); in [2], 0.15 µg/mL (≈ 0.772 µM); in assay [3], 0.17 µg/mL (≈ 0.875 µM); in assay [17], 0.82 µg/mL (≈ 4.22 µM); in assay [18], 0.97 µg/mL (≈ 5 µM).

On to `CCOC(=O)/C=C/c1cc(O)c2c(c1O)C(=O)c1ccccc1C2=O`, for which the values for the IC50 in assay [1], in assay [2] and in [3] were 0.32 µg/mL (≈ 0.946 µM), 0.91 µg/mL (≈ 2.69 µM) and 0.71 µg/mL (≈ 2.1 µM), respectively.

As to `COc1cccc2c1C(=O)c1c(O)c3c(c(O)c1C2=O)C[C@@](O)(C(=O)CO)C[C@@H]3O[C@H]1C[C@H](N)[C@H](O)[C@H](C)O1` [DOXORUBICIN], the half-inhibitory concentration (IC50) in assay [12] came out at 0.29 µg/mL (≈ 0.534 µM).

For the compound `COC(=O)/C=C/c1cc(OC)c2c(c1OC)C(=O)c1ccccc1C2=O`, the IC50 in assay [1], in assay [2] and in assay [3] was greater than 30 µg/mL in each case.
